Measured values from paper PMC12649549, “Sequence Permutation Generated Lysine and Tryptophan-Rich Antimicrobial Peptides with Enhanced Therapeutic Index” (Antibiotics, 2025).
Where two headings read alike, the source gives them in different places.

How the values were obtained:
[1] = test system: A. baumannii 14B00100 (Acinetobacter sp., BCRC number 14B0100)
Procedure: (§1) The antibacterial and salt-resistant activity of the peptides was tested using Escherichia coli (ATCC 25922), Pseudomonas aeruginosa Migula (ATCC 27853), Acinetobacter sp. (BCRC number 14B0091, BCRC number 14B0097, and BCRC number 14B0100), and Staphylococcus aureus sp. strains (ATCC 25923, ATCC 33591, ATCC 33592, ATCC 33593, and ATCC 6538). All bacteria were obtained from the Food Industry Research and Development Institute (Hsinchu, Taiwan) and cultured in sterilized Müller-Hinton (MH) broth at 37 °C and 200 rpm for 8 h. The inoculum concentrations were determined by measuring the optical density at 600 nm (OD 600 = 1, approximately 10^8 CFU/mL) using an Ultrospec 2100 pro UV-Visible spectrophotometer (Biochrom Ltd., Cambridge, UK) after 8 h of culture.
(§2) The antibacterial activities of the peptides in Müller-Hinton (MH) broth and modified LYM broth were determined using the standard broth microdilution method as per Clinical and Laboratory Standards Institute (CLSI) guidelines. The LYM broth was prepared with specific components and adjusted to different conditions, including varying concentrations of NaCl and MgCl2, and different pH levels. To prepare the LYM broth, 5.4 mM KCl, 5.6 mM Na2HPO4, 0.5 mM MgSO4, and 1.0 mM sodium citrate were added. Additionally, 0.4 mg of ZnCl2, 2.0 mg of FeCl3·6H2O, 0.1 mg of CuSO4·5H2O, 0.1 mg of MnSO4·H2O, 0.1 mg of Na2B4O7∙10H2O, 700 mg of amino acid mixtures without tryptophan (Takara Bio Inc., San Jose, CA, USA), and 20 mg of L-tryptophan were added per liter of medium. The pH was adjusted to 7.4, and a vitamin mixture (100X, Sigma) and glucose concentration of 2% were added. For different conditions of LYM broth, NaCl concentrations of 300, 200, 150, and 50 mM, MgCl2 concentrations of 2.5, 1.5, and 0.5 mM, and pH levels of 6.5, 5.5, and 4.5 were adjusted. Bacterial strains were incubated in MH broth overnight, regrown, and diluted to a final concentration of 5 × 10^5 CFU/mL. Peptides were added to each well at final concentrations of 50, 25, 12.5, 6.25, 3.13, 1.56, and 0.78 µg/mL, and 99 µL of diluted microbes was loaded into each well of a polypropylene 96-well plate. […] The Morpheus HeatMap software (https://software.broadinstitute.org/morpheus/) was used to display MIC values on a color scale. All experiments were independently repeated three times.

[2] = test system: Pseudomonas aeruginosa Migula (ATCC 27853)
Procedure: as §1, §2

S. aureus ATCC 6538 = test system: S. aureus ATCC 6538
Procedure: as §1, §2

S. aureus ATCC 33592 = test system: S. aureus ATCC 33592
Procedure: as §1
as §2, with “For different conditions of LYM broth, NaCl concentrations of 300, 200, 150, and 50 mM, MgCl2 concentrations of 2.5, 1.5, and 0.5 mM, and pH levels of 6.5, 5.5, and 4.5 were adjusted.” left out

Gram-negative bacteria = experiment: Geometric mean MIC and therapeutic index, Gram-negative bacteria; format: cell-based; settings: Gram-negative bacteria
Procedure: In this study, we aimed to investigate the potential of W5K series peptides for therapeutic use. To evaluate their efficacy for antibacterial therapy, we used the Therapeutic Index (TI) as a measure of their cell selectivity. The TI was calculated as the ratio of the concentration causing 10% hemolysis of human red blood cells (HC10) to the geometric mean minimum inhibitory concentration (GM) of the peptides against both Gram-negative and Gram-positive bacteria. This parameter was used to quantitatively assess the balance between antibacterial potency and cytotoxicity among the W5K derivatives.
as §2

[3] = LYM broth, 0 mM NaCl, 16 h, 37 °C
[4] = LYM broth, 50 mM NaCl, 16 h, 37 °C
[5] = LYM broth, 100 mM NaCl, 16 h, 37 °C
[6] = LYM broth, 200 mM (NaCl), 16 h, 37 °C
[7] = LYM broth, 300 mM (NaCl), 16 h, 37 °C
[8] = MH broth, 5 × 10^5 CFU/mL, 16 h, 37 °C, repeated three times

Ac-LKWLAKKKKWRKW-NH2 [Peptide W5K06]
MIC [1, 3]: 3.13 µg/mL
MIC ([1]; LYM broth, 0.5 mM MgCl2): 3.13 µg/mL
MIC ([1]; LYM broth, 1.5 mM MgCl2): 3.13 µg/mL
MIC ([1]; LYM broth, 2.5 mM MgCl2): 3.13 µg/mL
MIC [1, 4]: 3.13 µg/mL
MIC [1, 5]: 6.25 µg/mL
MIC [1, 6]: 25 µg/mL
MIC [1, 7]: >50 µg/mL
MIC ([1]; LYM broth, pH 4.5): 3.13 µg/mL
MIC ([1]; LYM broth, pH 5.5): 3.13 µg/mL
MIC ([1]; LYM broth, pH 6.5): 1.56 µg/mL
MIC [1, 8]: 50 µg/mL
MIC [2, 3]: 6.25 µg/mL
MIC ([2]; LYM broth, 0.5 mM MgCl2): 6.25 µg/mL
MIC ([2]; LYM broth, 1.5 mM MgCl2): 6.25 µg/mL
MIC ([2]; LYM broth, 2.5 mM MgCl2): 25 µg/mL
MIC [2, 5]: 25 µg/mL
MIC [2, 6]: >50 µg/mL
MIC [2, 7]: >50 µg/mL
MIC ([2]; LYM broth, pH 4.5): 25 µg/mL
MIC ([2]; LYM broth, pH 5.5): 6.25 µg/mL
MIC ([2]; LYM broth, pH 6.5): 3.13 µg/mL
MIC [2, 8]: 50 µg/mL
MIC (S. aureus ATCC 6538; [3]): 6.25 µg/mL
MIC (S. aureus ATCC 6538; LYM broth, 0.5 mM MgCl2): 3.13 µg/mL
MIC (S. aureus ATCC 6538; LYM broth, 1.5 mM MgCl2): 3.13 µg/mL
MIC (S. aureus ATCC 6538; LYM broth, 2.5 mM MgCl2): 6.25 µg/mL
MIC (S. aureus ATCC 6538; [4]): 6.25 µg/mL
MIC (S. aureus ATCC 6538; [5]): 25 µg/mL
MIC (S. aureus ATCC 6538; [6]): 50 µg/mL
MIC (S. aureus ATCC 6538; [7]): >50 µg/mL
MIC (S. aureus ATCC 6538; LYM broth, pH 4.5): 6.25 µg/mL
MIC (S. aureus ATCC 6538; LYM broth, pH 5.5): 6.25 µg/mL
MIC (S. aureus ATCC 6538; LYM broth, pH 6.5): 6.25 µg/mL
MIC (S. aureus ATCC 6538; [8]): 50 µg/mL
MIC (S. aureus ATCC 33592; [3]): 12.5 µg/mL
MIC (S. aureus ATCC 33592; LYM broth, 0.5 mM MgCl2): 12.5 µg/mL
MIC (S. aureus ATCC 33592; LYM broth, 1.5 mM MgCl2): 25 µg/mL
MIC (S. aureus ATCC 33592; LYM broth, 2.5 mM MgCl2): 25 µg/mL
MIC (S. aureus ATCC 33592; [4]): 25 µg/mL
MIC (S. aureus ATCC 33592; [5]): 50 µg/mL
MIC (S. aureus ATCC 33592; [6]): >50 µg/mL
MIC (S. aureus ATCC 33592; [7]): >50 µg/mL
MIC (S. aureus ATCC 33592; LYM broth, pH 4.5): 12.5 µg/mL
MIC (S. aureus ATCC 33592; LYM broth, pH 5.5): 12.5 µg/mL
MIC (S. aureus ATCC 33592; LYM broth, pH 6.5): 6.25 µg/mL
MIC (S. aureus ATCC 33592; [8]): >50 µg/mL
GM G− (geometric mean of the MIC values) (Gram-negative bacteria; MH broth, MIC >50 µg/mL counted as 100 µg/mL): 43.5 µg/mL
Therapeutic Index (TI) G− (Gram-negative bacteria; HC10/GM): 2.5
